No end group written: not given here.
What was measured:
mouse AgRP gene = assay: AgRP expression in mHYPOE-N46 mouse hypothalamus cell line treated with ghrelin, real-time PCR; format: cell-based; details: mHYPOE-N46 cells, 0, 10 pM, 1 nM, 100 nM, 6 or 12 hours, primers mAgRP1 and mAgRP2 (FIG. 3A-3D)
Experimental: An experiment was conducted to identify the change in AgRP expression level when the mouse hypothalamus cell line was directly treated with the mouse/rat recombinant ghrelin. Specifically, mHYPOE-N46 mouse hypothalamus cell line was thawed in a 175T flask and stabilized for 3 days, and then was incubated for two days in DMEM high glucose medium (Gibco, 11965-092) supplemented with 10% FBS (Biowest, 51480) and penicillin-streptomycin (Gibco, 15140122). Under 10% FBS conditions, the cells are seeded, at 0.8×10^6, in a 6 well plate and incubated for 1 day. After the incubation, the cells were treated with mouse/rat recombinant ghrelin (Phoenix Pharmaneuticals, 031-31) at concentrations of 0, 10 pM, 1 nM, and 100 nM, respectively, in FBS-free conditions. Cells were collected after 6 and 12 hours, respectively. The collected cells were treated with Trizol. mRNA was extracted therefrom. Then, real-time PCR analysis thereof was performed using two mouse AgRP primer pairs. […] After direct treatment of the cells with ghrelin for 6 or 12 hours, the expression of mAgRP was analyzed. In addition, the results of mouse AgRP expression analysis according to ghrelin treatment time using primer mAgRP2 are shown in FIG. 3C and FIG. 3D.

AgRP gene = assay: AgRP expression in mesenchymal stem cells (WJ-MSC) treated with ghrelin, real-time PCR; format: cell-based, human
Experimental: An experiment was conducted to identify the effect on the expression of AgRP (Agouti related peptide) known as a therapeutic agent for brain neuronal disease such as Alzheimer's disease in mesenchymal stem cells when the mesenchymal stem cells were directly treated with ghrelin. WJ-MSCs were thawed in a 175T flask and stabilized for 3 days, and then cultured for 2 days in MEM alpha medium (Gibco, 12571063) to which 10% FBS (Biowest, S1480) and 5 μg/ml gentamicin were added. Thereafter, the WJ-MSCs were seeded, at 0.8×10^6, on a 6-well plate under 10% FBS conditions and incubated for 1 day. After the incubation, the WJ-MSCs were treated with human recombinant ghrelin (Phoenix Pharmaneuticals, 031-30) at concentrations of 0, 10 pM, 1 nM, and 100 nM, respectively, under FBS-free conditions. Cells were collected after 6 and 12 hours, respectively. The collected WJ-MSC was treated with Trizol, and mRNA was extracted therefrom. Then, real-time PCR analysis thereof was performed using human AgRP Primer. The results of treatment of the cells with human recombinant ghrelin at various concentrations for 6 hours are shown in FIG. 2A. The results of treatment of the cells with human recombinant ghrelin at various concentrations for 12 hours are shown in FIG. 2B.

Substance | expression of mouse AgRP gene (mouse AgRP gene) | expression of AgRP gene (AgRP gene; WJ-MSC, 0, 10 pM, 1 nM, 100 nM, FBS-free, 6 hours and 12 hours (FIG. 2A, 2B)) | expression of AgRP (AgRP gene; WJ-MSC, 100 nM concentration, 6 and 12 hours)
mouse ghrelin: mouse/rat recombinant ghrelin (Phoenix Pharmaneuticals, 031-31) (GSSFLSPEHQKAQQRKESKKPPAKLQPR; ends and bridges not checked; UniProt Q9EQX0 24-51, looked up) | increased according to the concentration of ghrelin | – | –
human recombinant ghrelin: human recombinant ghrelin (Phoenix Pharmaneuticals, 031-30); hormone that increases appetite (GSSFLSPEHQRVQQRKESKKPPAKLQPR; ends and bridges not checked; UniProt Q9UBU3 24-51, looked up) | – | increased based on the treatment concentration | significantly increased

Reference: patent publication US12433935B2, “Producing method of mesenchymal stem cell for prevention or treatment of brain neuronal disease including ghrelin treatment and use thereof” (Samsung Life Public Welfare Foundation, priority 2020, dated 2025)
